Reference: ChEMBL document CHEMBL1201862, “PubChem BioAssay data set” (2004)
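These data come from cells grown in 96-well plates and exposed to compound for 48 hours at five concentrations. GI50 = concentration required for 50% inhibition of growth.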 Calls of active or inactive are those of the source. Cut-off read from the data, not from the text of the source: active = GI50 up to about 1.1 µM and inactive = higher.

What was measured:
Assay in all cases: DTP human tumour cell line panel, 48 h
[1] = tested on: IGROV-1
[2] = tested on: A549
[3] = tested on: ACHN
[4] = tested on: SF-295
[5] = tested on: DMS-273
[6] = tested on: LOX IMVI
[7] = tested on: RXF 393
[8] = tested on: M14
[9] = tested on: HCT-15
[10] = tested on: COLO 205
[11] = tested on: UACC-62
[12] = tested on: SN12C
[13] = tested on: 786-0
[14] = tested on: OVCAR-8
[15] = tested on: RPMI-8226
[16] = tested on: SW-620
[17] = tested on: U-251
[18] = tested on: OVCAR-3
[19] = tested on: KM-20L2
[20] = tested on: SNB-19
[21] = tested on: MOLT-4
[22] = tested on: HOP-62
[23] = tested on: XF498
[24] = tested on: KM12
[25] = tested on: NCI-H226
[26] = tested on: TK-10
[27] = tested on: HCT-116
[28] = tested on: SR
[29] = tested on: SNB-75
[30] = tested on: SNB-78
[31] = tested on: Malme-3M
[32] = tested on: EKVX
[33] = tested on: NCI-H522
[34] = tested on: HL-60
[35] = tested on: SK-MEL-5
[36] = tested on: LXFL 529
[37] = tested on: M19-MEL
[38] = tested on: OVCAR-4
[39] = tested on: K562
[40] = tested on: SK-MEL-2
[41] = tested on: SF-268
[42] = tested on: SK-MEL-28
[43] = tested on: CCRF-CEM
[44] = tested on: HT-29
[45] = tested on: DMS-114
[46] = tested on: UO-31
[47] = tested on: NCI-H23
[48] = tested on: OVCAR-5
[49] = tested on: SF-539
[50] = tested on: NCI-H460

SMILES: O=C1CC2(CCC3=C(O2)c2ccccc2NC(=O)C3)C(=O)c2ccccc2N1 (stereo not given)
- GI50 [1]: > 100 µM (inactive)
- GI50 [2]: > 100 µM (inactive)
- GI50 [3]: > 100 µM (inactive)
- GI50 [4]: > 100 µM (inactive)
- GI50 [5]: > 100 µM (inactive)
- GI50 [6]: > 100 µM (inactive)
- GI50 [7]: > 100 µM (inactive)
- GI50 [8]: > 100 µM (inactive)
- GI50 [9]: > 100 µM
- GI50 [10]: > 100 µM (inactive)
- GI50 [11]: > 100 µM (inactive)
- GI50 [12]: > 100 µM (inactive)
- GI50 [13]: > 100 µM (inactive)
- GI50 [14]: > 100 µM (inactive)
- GI50 [15]: 87.1 µM (inactive)
- GI50 [16]: > 100 µM (inactive)
- GI50 [17]: > 100 µM (inactive)
- GI50 [18]: > 100 µM (inactive)
- GI50 [19]: > 100 µM (inactive)
- GI50 [20]: 98.6 µM (inactive)
- GI50 [21]: > 100 µM (inactive)
- GI50 [22]: > 100 µM (inactive)
- GI50 [23]: > 100 µM (inactive)
- GI50 [24]: > 100 µM (inactive)
- GI50 [25]: > 100 µM (inactive)
- GI50 [26]: > 100 µM (inactive)
- GI50 [27]: > 100 µM (inactive)
- GI50 [28]: > 10 µM (inactive)
- GI50 [29]: 22.2 µM (inactive)
- GI50 [30]: > 100 µM (inactive)
- GI50 [31]: > 100 µM (inactive)
- GI50 [32]: > 100 µM (inactive)
- GI50 [33]: > 100 µM (inactive)
- GI50 [34]: > 100 µM (inactive)
- GI50 [35]: > 100 µM (inactive)
- GI50 [36]: > 100 µM (inactive)
- GI50 [37]: > 100 µM (inactive)
- GI50 [38]: > 100 µM (inactive)
- GI50 [39]: 48.1 µM (inactive)
- GI50 [40]: > 100 µM (inactive)
- GI50 [41]: > 100 µM (inactive)
- GI50 [42]: > 100 µM (inactive)
- GI50 [43]: > 100 µM (inactive)
- GI50 [44]: > 100 µM (inactive)
- GI50 [45]: > 100 µM (inactive)
- GI50 [46]: 41.9 µM (inactive)
- GI50 [47]: > 100 µM (inactive)
- GI50 [48]: > 100 µM (inactive)
- GI50 [49]: > 100 µM (inactive)
- GI50 [50]: > 100 µM (inactive)
